Source: US10538498B2, “1,3,4-oxadiazole sulfonamide derivative compounds as histone deacetylase 6 inhibitor, and the pharmaceutical composition comprising the same” (Chong Kun Dang Pharmaceutical Corp., priority 2015, dated 2020)

Target: T1, human recombinant HDAC6 (Homo sapiens, UniProt Q9UBN7)
T1 construct: purchased Calbiochem 382180
T1 sequence (Q9UBN7 1-1215): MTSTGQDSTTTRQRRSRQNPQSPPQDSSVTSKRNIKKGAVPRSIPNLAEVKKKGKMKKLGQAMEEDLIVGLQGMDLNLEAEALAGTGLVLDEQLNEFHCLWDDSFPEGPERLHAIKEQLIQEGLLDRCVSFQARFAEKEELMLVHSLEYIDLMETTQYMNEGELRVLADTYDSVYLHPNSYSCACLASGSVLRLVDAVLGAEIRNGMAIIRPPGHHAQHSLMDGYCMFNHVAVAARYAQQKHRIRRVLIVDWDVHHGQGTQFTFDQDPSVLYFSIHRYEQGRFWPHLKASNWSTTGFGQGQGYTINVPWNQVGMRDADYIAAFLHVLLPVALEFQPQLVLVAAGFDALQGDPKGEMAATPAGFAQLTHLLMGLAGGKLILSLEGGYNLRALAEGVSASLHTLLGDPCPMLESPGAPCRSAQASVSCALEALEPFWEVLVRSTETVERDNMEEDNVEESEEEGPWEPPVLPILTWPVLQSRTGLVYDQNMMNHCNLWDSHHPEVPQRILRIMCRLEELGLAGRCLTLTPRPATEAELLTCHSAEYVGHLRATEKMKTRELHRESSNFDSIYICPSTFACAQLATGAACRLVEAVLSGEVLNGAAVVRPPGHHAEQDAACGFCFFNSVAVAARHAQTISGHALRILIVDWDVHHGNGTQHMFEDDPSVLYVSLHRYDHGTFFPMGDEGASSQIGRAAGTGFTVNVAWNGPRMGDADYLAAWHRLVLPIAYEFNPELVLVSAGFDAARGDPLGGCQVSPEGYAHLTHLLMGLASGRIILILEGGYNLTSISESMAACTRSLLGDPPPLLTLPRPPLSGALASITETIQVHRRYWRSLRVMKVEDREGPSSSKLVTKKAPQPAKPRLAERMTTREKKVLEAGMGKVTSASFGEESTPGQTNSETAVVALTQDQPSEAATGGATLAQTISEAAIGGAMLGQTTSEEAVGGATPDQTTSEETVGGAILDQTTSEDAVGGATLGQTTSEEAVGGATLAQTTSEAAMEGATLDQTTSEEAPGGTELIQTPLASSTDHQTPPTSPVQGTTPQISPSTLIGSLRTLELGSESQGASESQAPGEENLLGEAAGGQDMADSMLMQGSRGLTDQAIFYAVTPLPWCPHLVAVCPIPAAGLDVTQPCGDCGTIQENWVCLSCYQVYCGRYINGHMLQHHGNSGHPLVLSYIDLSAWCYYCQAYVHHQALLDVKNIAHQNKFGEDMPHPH
Assay: HDAC6 enzyme activity inhibition assay (HDAC Fluorimetric Drug Discovery Kit)
Type: biochemical
Details: for HDAC6 selectivity (fold): HDAC1 vs HDAC6; for IC50: same protocol as the HDAC1 enzyme activity test
Summary of the method: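 Human recombinant enzyme, 0.3 μg, incubated with 10 μM Fluor de Lys-SIRT1 substrate and 5-fold compound dilutions at 30° C for 60 min. Developer II added for 30 min, then fluorescence read (Ex 360/Em 460). IC50 values derived from the fluorescence data.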

| Structure (SMILES) | HDAC6 selectivity (fold) | IC50 [nM] |
| --- | --- | --- |
| O=C(OCC1CCN(CCS(=O)(=O)N(Cc2ccc(-c3nnc(C(F)F)o3)cc2)c2ccccc2)CC1)C(F)F [Compound 11676, (1-(2-(N-(4-(5-(difluoromethyl)-1,3,4-oxadiazol-2-yl)benzyl)-N-Phenylsulfamoyl)ethyl)piperidin-4-yl)methyl 2,2-difluoroacetate] | 1408 | 71 |
| CS(=O)(=O)N(Cc1ccc(-c2nnc(C(F)(F)F)o2)cc1)Cc1ccccn1 [Compound 11045, N-(pyridin-2-ylmethyl)-N-(4-(5-(trifluoromethyl)-1,3,4-oxadiazol-2-yl)benzyl)methanesulfonamide] | 633 | 158 |
| Cc1noc(C2CCN(CCS(=O)(=O)N(Cc3ccc(-c4nnc(C(F)F)o4)cc3)c3ccccc3)CC2)n1 [Compound 11764, N-(4-(5-(difluoromethyl)-1,3,4-oxadiazol-2-yl)benzyl)-2-(4-(3-methyl-1,2,4-oxadiazol-5-yl)piperidin-1-yl)-N-phenylethane-1-sulfonamide] | 731 | 137 |
| CCS(=O)(=O)N(Cc1ccc(-c2nnc(C(F)F)o2)cn1)c1cccc2c1CN(C)C2 [Compound 11712, N-((5-(5-(difluoromethyl)-1,3,4-oxadiazol-2-yl)pyridin-2-yl)methyl)-N-(2-methylisoindolin-4-yl)ethanesulfonamide] | 264 | 378 |
| CC(=O)N1CCN(CCS(=O)(=O)N(Cc2ccc(-c3nnc(C(F)F)o3)cc2F)c2ccc(F)c(Cl)c2)CC1 [Compound 11553, 2-(4-acetylpiperazin-1-yl)-N-(3-chloro-4-fluorophenyl)-N-(4-(5-(difluoromethyl)-1,3,4-oxadiazol-2-yl)-2-fluorobenzyl)ethane-1-sulfonamide] | 5882 | 17 |
| Cc1cccc(N(Cc2ccc(-c3nnc(C(F)F)o3)cc2)S(=O)(=O)C2CCN([C@H]3CC[C@H](C(F)(F)F)CC3)CC2)c1 [Compound 11697, N-(4-(5-(difluoromethyl)-1,3,4-oxadiazol-2-yl)benzyl)-N-(m-tolyl)-1-((1r,4r)-4-(trifluoromethyl)cyclohexyl)piperidine-4-sulfonamide] | 101 | 988 |
| Cc1ccccc1N(Cc1ccc(-c2nnc(C(F)F)o2)cc1F)S(C)(=O)=O [Compound 11249, N-(4-(5-(difluoromethyl)-1,3,4-oxadiazol-2-yl)-2-fluorobenzyl)-N-(o-tolyl)methanesulfonamide] | 2703 | 37 |
| O=S1(=O)CCC(S(=O)(=O)N(Cc2ccc(-c3nnc(C(F)F)o3)cn2)c2ccccc2)CC1 [Compound 11350, N-((5-(5-(difluoromethyl)-1,3,4-oxadiazol-2-yl)pyridin-2-yl)methyl)-N-phenyltetrahydro-2H-thiopyran-4-sulfonamide 1,1-dioxide] | 10000 | 10 |
| CCCCN(Cc1ccc(-c2nnc(C(F)(F)F)o2)cc1)S(C)(=O)=O [Compound 11222, N-butyl-N-(4-(5-(trifluoromethyl)-1,3,4-oxadiazol-2-yl)benzyl)methanesulfonamide] | 243 | 412 |
| O=S(=O)(c1cccnc1)N(Cc1ccc(-c2nnc(C(F)(F)F)o2)cc1)c1cccc(F)c1 [Compound 11155, N-(3-fluorophenyl)-N-(4-(5-(trifluoromethyl)-1,3,4-oxadiazol-2-yl)benzyl)pyridine-3-sulfonamide] | 1250 | 80 |
| O=S(=O)(CCN1CCC(N2CCOCC2)CC1)N(Cc1ccc(-c2nnc(C(F)F)o2)cc1)c1ccccc1 [Compound 11763, N-(4-(5-(difluoromethyl)-1,3,4-oxadiazol-2-yl)benzyl)-2-(4-morpholinopiperidin-1-yl)-N-phenylethane-1-sulfonamide] | 948 | 105 |
| CN(C)CCCS(=O)(=O)N(Cc1ccc(-c2nnc(C(F)F)o2)cc1)c1ccccc1 [Compound 11685, N-(4-(5-(difluoromethyl)-1,3,4-oxadiazol-2-yl)benzyl)-3-(dimethylamino)-N-phenylpropane-1-sulfonamide] | 5882 | 17 |
| COCC(C)CS(=O)(=O)N(Cc1ccc(-c2nnc(C(F)F)o2)cc1F)c1ccccc1 (stereo not shown) [Compound 11288] | 2128 | 47 |
| CS(=O)(=O)N(Cc1ccc(-c2nnc(C(F)F)o2)cn1)c1cccc(Br)c1 [Compound 11354, N-(3-bromophenyl)-N-((5-(5-(difluoromethyl)-1,3,4-oxadiazol-2-yl)pyridin-2-yl)methyl)methanesulfonamide] | 12500 | 8 |
| O=S(=O)(CCCN1CCOCC1)N(Cc1ccc(-c2nnc(C(F)F)o2)cc1)c1ccc(F)c(Cl)c1 [Compound 11723, N-(3-chloro-4-fluorophenyl)-N-(4-(5-(difluoromethyl)-1,3,4-oxadiazol-2-yl)benzyl)-3-morpholinopropane-1-sulfonamide] | 1272 | 78.6 |
| O=S(=O)(CCN1CCC(F)CC1)N(Cc1ccc(-c2nnc(C(F)F)o2)cn1)c1ccc(F)c(Cl)c1 [Compound 11786, N-(3-chloro-4-fluorophenyl)-N-((5-(5-(difluoromethyl)-1,3,4-oxadiazol-2-yl)pyridin-2-yl)methyl)-2-(4-fluoropiperidin-1-yl)ethane-1-sulfonamide] | 1828 | 54.7 |
| O=S(=O)(C1CCN(C2COC2)CC1)N(Cc1ccc(-c2nnc(C(F)F)o2)cc1)c1cccc(Cl)c1 [Compound 11681, N-(3-chlorophenyl)-N-(4-(5-(difluoromethyl)-1,3,4-oxadiazol-2-yl)benzyl)-1-(oxetan-3-yl)piperidine-4-sulfonamide] | 6667 | 15 |
| CS(=O)(=O)N(Cc1ccc(-c2nnc(C(F)(F)F)o2)cc1F)c1ccc(Cl)cc1 [Compound 11271, N-(4-chlorophenyl)-N-(2-fluoro-4-(5-(trifluoromethyl)-1,3,4-oxadiazol-2-yl)benzyl)methanesulfonamide] | 775 | 129 |
| CS(=O)(=O)N(Cc1ccc(-c2nnc(C(F)(F)F)o2)cc1F)c1ccc(F)cc1 [Compound 11275, N-(2-fluoro-4-(5-(trifluoromethyl)-1,3,4-oxadiazol-2-yl)benzyl)-N-(4-fluorophenyl)methanesulfonamide] | 1370 | 73 |
| Cc1cccc(N(Cc2ccc(-c3nnc(C(F)F)o3)cc2)S(=O)(=O)C2CCN(C3CC(O)C3)CC2)c1 (stereo not shown) [Compound 11792, N-(4-(5-(difluoromethyl)-1,3,4-oxadiazol-2-yl)benzyl)-1-(3-hydroxycyclobutyl)-N-(m-tolyl)piperidine-4-sulfonamide] | 1218 | 82.1 |
| O=S(=O)(C1CCN(C2CC(O)C2)CC1)N(Cc1ccc(-c2nnc(C(F)F)o2)cc1)c1cccc(Cl)c1 (stereo not shown) [Compound 11793, N-(3-chlorophenyl)-N-(4-(5-(difluoromethyl)-1,3,4-oxadiazol-2-yl)benzyl)-1-(3-hydroxycyclobutyl)piperidine-4-sulfonamide] | 1718 | 58.2 |
| Cn1c(=O)n(C)c2cc(N(Cc3ccc(-c4nnc(C(F)F)o4)cc3)S(C)(=O)=O)ccc21 [Compound 11745, N-(4-(5-(difluoromethyl)-1,3,4-oxadiazol-2-yl)benzyl)-N-(1,3-dimethyl-2-oxo-2,3-dihydro-1H-benzo[d]imidazol-5-yl) methanesulfonamide] | 432 | 231 |
| CS(=O)(=O)N(Cc1ccc(-c2nnc(C(F)F)o2)cc1F)c1ccccc1Cl [Compound 11280, N-(2-chlorophenyl)-N-(4-(5-(difluoromethyl)-1,3,4-oxadiazol-2-yl)-2-fluorobenzyl)methanesulfonamide] | 1266 | 79 |
